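Method: 48-hour compound exposure of cells in 96-well plates, five concentrations, linear interpolation of endpoints. TGI denotes the concentration required for complete inhibition of growth.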
Key:
Assay in all cases: NCI tumour cell line growth inhibition, 48 h
CCRF-CEM leukemia = system: CCRF-CEM leukemia
ACHN renal = system: ACHN renal
OVCAR-3 ovarian = system: OVCAR-3 ovarian
A549 NSCLC = system: A549 NSCLC
OVCAR-5 ovarian = system: OVCAR-5 ovarian
M14 melanoma = system: M14 melanoma
NCI-H460 lung = system: NCI-H460 lung
HCC-2998 colon = system: HCC-2998 colon
MDA-MB-435 = system: MDA-MB-435
MALME-3M melanoma = system: MALME-3M melanoma
RPMI-8226 leukemia = system: RPMI-8226 leukemia
MDA-MB-231 breast = system: MDA-MB-231 breast
HOP-92 NSCLC = system: HOP-92 NSCLC
786-0 renal = system: 786-0 renal
MDA-N = system: MDA-N
SK-OV-3 ovarian = system: SK-OV-3 ovarian
MOLT-4 leukemia = system: MOLT-4 leukemia
U251 CNS = system: U251 CNS
SF-295 CNS = system: SF-295 CNS
COLO 205 colon = system: COLO 205 colon
SNB-19 CNS = system: SNB-19 CNS
UACC-62 melanoma = system: UACC-62 melanoma
BT-549 breast = system: BT-549 breast
NCI-H23 lung = system: NCI-H23 lung
HS 578T breast = system: HS 578T breast
A498 renal = system: A498 renal
NCI-H226 lung = system: NCI-H226 lung
NCI-H522 lung = system: NCI-H522 lung
T-47D breast = system: T-47D breast
LOX IMVI melanoma = system: LOX IMVI melanoma
HCT-15 colon = system: HCT-15 colon
HCT-116 colon = system: HCT-116 colon
KM12 colon = system: KM12 colon
SW-620 colon = system: SW-620 colon
UACC-257 melanoma = system: UACC-257 melanoma
SK-MEL-5 melanoma = system: SK-MEL-5 melanoma
SNB-75 CNS = system: SNB-75 CNS
CAKI-1 renal = system: CAKI-1 renal
UO-31 renal = system: UO-31 renal
TK-10 renal = system: TK-10 renal
OVCAR-8 ovarian = system: OVCAR-8 ovarian
NCI/ADR-RES ovarian = system: NCI/ADR-RES ovarian
IGROV1 ovarian = system: IGROV1 ovarian
SK-MEL-2 melanoma = system: SK-MEL-2 melanoma
SN12C renal = system: SN12C renal
EKVX NSCLC = system: EKVX NSCLC
HL-60(TB) leukemia = system: HL-60(TB) leukemia
K-562 leukemia = system: K-562 leukemia
PC-3 prostate = system: PC-3 prostate
RXF 393 renal = system: RXF 393 renal
SF-539 CNS = system: SF-539 CNS
SR leukemia = system: SR leukemia
MCF7 breast = system: MCF7 breast
SF-268 CNS = system: SF-268 CNS
DU-145 prostate = system: DU-145 prostate
OVCAR-4 ovarian = system: OVCAR-4 ovarian
HOP-62 NSCLC = system: HOP-62 NSCLC
HT29 colon = system: HT29 colon
SK-MEL-28 melanoma = system: SK-MEL-28 melanoma

## O=C1C=CC(=O)C(CNc2ccc(C(=O)OC34CC5CC(CC(C5)C3)C4)cc2)=C1
CCRF-CEM leukemia
  TGI: > 20.4 µM
ACHN renal
  TGI: 19.1 µM
OVCAR-3 ovarian
  TGI: 14.4 µM
A549 NSCLC
  TGI: 56.9 µM
OVCAR-5 ovarian
  TGI: 39.2 µM
M14 melanoma
  TGI: 31.1 µM
NCI-H460 lung
  TGI: 32.9 µM
HCC-2998 colon
  TGI: 32.4 µM
MDA-MB-435
  TGI: 23 µM
MALME-3M melanoma
  TGI: 21.4 µM
RPMI-8226 leukemia
  TGI: 7.01 µM
MDA-MB-231 breast
  TGI: 36.2 µM
HOP-92 NSCLC
  TGI: 13.7 µM
786-0 renal
  TGI: 23 µM
MDA-N
  TGI: 19.2 µM
SK-OV-3 ovarian
  TGI: > 57.4 µM
MOLT-4 leukemia
  TGI: 8.34 µM
U251 CNS
  TGI: 16.4 µM
SF-295 CNS
  TGI: 39.2 µM
COLO 205 colon
  TGI: 6.81 µM
SNB-19 CNS
  TGI: 27.8 µM
UACC-62 melanoma
  TGI: 16.5 µM
BT-549 breast
  TGI: 15.7 µM
NCI-H23 lung
  TGI: 25.4 µM
HS 578T breast
  TGI: 10.9 µM
A498 renal
  TGI: 28 µM
NCI-H226 lung
  TGI: 4.47 µM
NCI-H522 lung
  TGI: 2.28 µM
T-47D breast
  TGI: 6.88 µM
LOX IMVI melanoma
  TGI: 15.2 µM
HCT-15 colon
  TGI: 12.3 µM
HCT-116 colon
  TGI: 22.5 µM
KM12 colon
  TGI: 22.5 µM
SW-620 colon
  TGI: 27.4 µM
UACC-257 melanoma
  TGI: 18.2 µM
SK-MEL-5 melanoma
  TGI: 16.7 µM
SNB-75 CNS
  TGI: 18.1 µM
CAKI-1 renal
  TGI: 2.71 µM
UO-31 renal
  TGI: 16 µM
TK-10 renal
  TGI: 23.8 µM
OVCAR-8 ovarian
  TGI: 56 µM
NCI/ADR-RES ovarian
  TGI: 44.1 µM
IGROV1 ovarian
  TGI: 4.86 µM
SK-MEL-2 melanoma
  TGI: 44.3 µM
SN12C renal
  TGI: 17.8 µM
EKVX NSCLC
  TGI: 25.3 µM
HL-60(TB) leukemia
  TGI: > 21.6 µM
K-562 leukemia
  TGI: > 49.3 µM
PC-3 prostate
  TGI: 22 µM
RXF 393 renal
  TGI: 4.51 µM
SF-539 CNS
  TGI: 8.89 µM
SR leukemia
  TGI: > 29.3 µM
MCF7 breast
  TGI: 27.5 µM
SF-268 CNS
  TGI: 17.3 µM
DU-145 prostate
  TGI: 47.6 µM
OVCAR-4 ovarian
  TGI: 12 µM
HOP-62 NSCLC
  TGI: 17.1 µM
HT29 colon
  TGI: 24.6 µM
SK-MEL-28 melanoma
  TGI: 17.8 µM

## CN1CCN(c2c(Cl)cc(Cl)c3[nH]c4ccccc4c(=O)c23)CC1
CCRF-CEM leukemia
  TGI: > 36.2 µM
ACHN renal
  TGI: 17 µM
OVCAR-3 ovarian
  TGI: 33.5 µM
A549 NSCLC
  TGI: 32.9 µM
OVCAR-5 ovarian
  TGI: 29.3 µM
M14 melanoma
  TGI: 19.5 µM
NCI-H460 lung
  TGI: 24.1 µM
HCC-2998 colon
  TGI: 19.4 µM
MDA-MB-435
  TGI: 19.8 µM
MALME-3M melanoma
  TGI: 6.67 µM
RPMI-8226 leukemia
  TGI: 56.8 µM
MDA-MB-231 breast
  TGI: 28.7 µM
HOP-92 NSCLC
  TGI: 10.9 µM
786-0 renal
  TGI: > 43.3 µM
MDA-N
  TGI: 20.7 µM
SK-OV-3 ovarian
  TGI: 24.3 µM
MOLT-4 leukemia
  TGI: 9.96 µM
U251 CNS
  TGI: 19.7 µM
SF-295 CNS
  TGI: 20.3 µM
COLO 205 colon
  TGI: 25.3 µM
SNB-19 CNS
  TGI: 19.7 µM
UACC-62 melanoma
  TGI: 18.6 µM
BT-549 breast
  TGI: 31.2 µM
NCI-H23 lung
  TGI: 27 µM
HS 578T breast
  TGI: 22.6 µM
A498 renal
  TGI: 5.44 µM
NCI-H226 lung
  TGI: 23 µM
NCI-H522 lung
  TGI: 19.2 µM
T-47D breast
  TGI: 38.5 µM
LOX IMVI melanoma
  TGI: > 42.6 µM
HCT-15 colon
  TGI: 17.1 µM
HCT-116 colon
  TGI: > 42.6 µM
KM12 colon
  TGI: 23 µM
SW-620 colon
  TGI: 21.3 µM
UACC-257 melanoma
  TGI: 22.1 µM
SK-MEL-5 melanoma
  TGI: 31.9 µM
SNB-75 CNS
  TGI: 22.5 µM
CAKI-1 renal
  TGI: 20.6 µM
UO-31 renal
  TGI: 17.3 µM
TK-10 renal
  TGI: 26.2 µM
OVCAR-8 ovarian
  TGI: 27.9 µM
NCI/ADR-RES ovarian
  TGI: 28.9 µM
IGROV1 ovarian
  TGI: 20.3 µM
SK-MEL-2 melanoma
  TGI: 28.1 µM
SN12C renal
  TGI: 21.5 µM
EKVX NSCLC
  TGI: 32.6 µM
HL-60(TB) leukemia
  TGI: 4.63 µM
K-562 leukemia
  TGI: > 48.6 µM
PC-3 prostate
  TGI: 23.3 µM
RXF 393 renal
  TGI: 25.2 µM
SF-539 CNS
  TGI: 15.3 µM
SR leukemia
  TGI: > 100 µM
MCF7 breast
  TGI: 15.8 µM
SF-268 CNS
  TGI: 20.2 µM
DU-145 prostate
  TGI: 16.6 µM
OVCAR-4 ovarian
  TGI: 46.2 µM
HOP-62 NSCLC
  TGI: 19.5 µM
HT29 colon
  TGI: 16.1 µM
SK-MEL-28 melanoma
  TGI: 26.8 µM

Source: PubChem BioAssay (NCI)
